Laboratory results reported in patent US12662451B2, “Chemical compounds and uses thereof” (GLAXOSMITHKLINE INTELLECTUAL PROPERTY (NO.4) LIMITED, priority 2023, dated 2026).
Where two headings read alike, the source gives them in different places.

Assays:
[1] = biological target: T1, recombinant full-length WRN protein (1-1432) (Homo sapiens, UniProt Q14191); experiment: WRN unwinding activity, fluorogenic 384-well assay (Example A); type: biochemical; conditions: WRN unwinding activity, 4 hr; Table 2; read-out: 4 hr UNW pIC50 (converted)
T1 construct: recombinant full-length WRN protein (1-1432)
T1 sequence (Q14191 whole entry): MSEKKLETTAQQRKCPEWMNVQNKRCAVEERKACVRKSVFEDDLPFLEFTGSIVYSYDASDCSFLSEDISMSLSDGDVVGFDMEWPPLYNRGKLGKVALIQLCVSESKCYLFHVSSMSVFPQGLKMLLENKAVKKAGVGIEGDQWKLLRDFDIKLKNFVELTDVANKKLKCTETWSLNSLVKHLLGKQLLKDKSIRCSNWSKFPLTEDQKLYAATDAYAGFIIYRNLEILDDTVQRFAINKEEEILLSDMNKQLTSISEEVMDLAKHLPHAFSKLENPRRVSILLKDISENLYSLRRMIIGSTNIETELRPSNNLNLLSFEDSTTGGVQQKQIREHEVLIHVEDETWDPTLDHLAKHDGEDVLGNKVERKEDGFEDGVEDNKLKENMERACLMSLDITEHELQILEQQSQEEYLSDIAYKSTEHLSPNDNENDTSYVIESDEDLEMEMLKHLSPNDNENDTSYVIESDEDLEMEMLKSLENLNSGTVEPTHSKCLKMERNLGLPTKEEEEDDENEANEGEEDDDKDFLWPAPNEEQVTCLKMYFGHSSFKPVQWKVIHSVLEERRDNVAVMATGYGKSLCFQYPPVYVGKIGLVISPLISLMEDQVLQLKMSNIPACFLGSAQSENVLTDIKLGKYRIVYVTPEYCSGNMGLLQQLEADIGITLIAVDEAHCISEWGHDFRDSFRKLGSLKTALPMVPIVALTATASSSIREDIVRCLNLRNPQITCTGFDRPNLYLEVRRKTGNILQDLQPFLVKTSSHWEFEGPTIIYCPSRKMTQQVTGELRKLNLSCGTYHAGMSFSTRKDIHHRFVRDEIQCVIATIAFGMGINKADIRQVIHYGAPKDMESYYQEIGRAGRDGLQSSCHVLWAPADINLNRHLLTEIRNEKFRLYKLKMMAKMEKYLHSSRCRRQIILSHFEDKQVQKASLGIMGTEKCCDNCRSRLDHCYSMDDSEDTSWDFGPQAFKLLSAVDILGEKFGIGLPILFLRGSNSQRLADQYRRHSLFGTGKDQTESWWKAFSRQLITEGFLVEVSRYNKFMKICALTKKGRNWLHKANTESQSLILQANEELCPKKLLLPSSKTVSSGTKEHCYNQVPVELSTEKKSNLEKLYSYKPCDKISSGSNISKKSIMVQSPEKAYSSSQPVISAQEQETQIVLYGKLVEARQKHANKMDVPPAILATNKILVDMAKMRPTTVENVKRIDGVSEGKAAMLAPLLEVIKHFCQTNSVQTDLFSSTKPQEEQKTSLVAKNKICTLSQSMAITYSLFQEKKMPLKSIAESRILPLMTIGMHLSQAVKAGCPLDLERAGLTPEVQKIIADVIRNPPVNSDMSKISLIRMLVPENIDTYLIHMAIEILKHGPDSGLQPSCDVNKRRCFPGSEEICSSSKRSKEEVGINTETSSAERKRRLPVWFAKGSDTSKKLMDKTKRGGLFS
Procedure, shortened: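 200 pM enzyme (2× stock) preincubated with compound 4 h at ambient temperature, then 200 μM ATP and 12 nM quenched TAMRA-labelled dsDNA (2× stocks) added for 60 min; EDTA-quenched. Buffer 25 mM Tris pH 8.0, 5 mM NaCl, 2 mM MgCl2. Fluorescence at 525/598 nm; pIC50 from four-parameter fit.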

[2] = Cell culture media unbound percentage and stability by rapid equilibrium dialysis (Example C); type: in vitro ADME; conditions: bovine, cell assay medium (RPMI-1640 with 10% fetal bovine serum), pH 7.4, rapid equilibrium dialysis, 4 hours at 37° C., read-out: Cell Culture Media Binding (% unbound)
Procedure, shortened: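 Compound spiked into cell culture medium at nominal 1 μM and dialysed against PBS (100 mM sodium phosphate + 150 mM NaCl, pH 7.4) by rapid equilibrium dialysis, triplicate, 4 h at 37° C with shaking. LC-MS/MS peak area ratios gave percent unbound (receiver/donor) and percent stability (240 min vs 0 min).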

[3] = test system: SW48 human colorectal cancer cells; experiment: Calculated free drug potency in SW48 cell assay, corrected with media free fraction (Example C); type: cell-based; conditions: for CC50: Homo sapiens, SW48, SW48 pCC50 corrected with measured free fraction in cell assay media
Procedure, shortened: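 Compound spiked at nominal 1 μM into cell assay medium and dialysed against PBS (100 mM sodium phosphate, 150 mM NaCl, pH 7.4) by rapid equilibrium dialysis, 4 h, 37 °C, shaking. Percent unbound from LC-MS/MS peak area ratios (240 min vs 0 min); cell assay concentrations corrected by this free fraction.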

[4] = test system: SW48 human colorectal cancer cells (MSI-H cancer cells); experiment: SW48 cell viability, CellTiter-Glo, 120 hours (Example B); conditions: for CC50: Homo sapiens
Method: SW48 human colorectal cancer cells (MSI-H cancer cells) were obtained from the American Type Culture Collection and maintained in growth medium composed of RPMI-1640 supplemented with 10% fetal bovine serum. Cells were maintained in a humidified 5% CO2 incubator at 37° C. Cell dissociation was conducted using TrypLE Select to detach cells from culture flasks. Following dissociation, cells were centrifuged briefly and resuspended in assay medium RPMI-1640+10% fetal bovine serum. Black 384-well assay plates were prepared from source plates of DMSO and compounds dissolved in DMSO prior to cell dispensation. These source plates were prepared in eleven point, 3-fold serial dilutions from 10 mM stocks stored at 4° C. Compounds and DMSO controls were dispensed into assay plates at 150 nanoliters per well from source plates using Labcyte Echo 555 or Echo 655T dispensers with Column 6 and Column 18 containing DMSO only. Cells were then seeded into prepared assay plates in 50 microliters assay medium at 250 cells per well into Columns 1 thru 17 and Columns 19-24. Assay medium without cells was added to column 18 to serve as a surrogate for 100% cell cytotoxicity. Following incubation for 120 hours in a humidified 5% CO2 incubator at 37° C., cellular ATP concentration of each well was measured and used as a surrogate of cell viability. This was performed by adding 50 microliters of CellTiter-Glo reagent to each well followed by a 10-minute incubation at room temperature. Luminescence was measured on a Synergy Neo or Synergy Neo2 multimode plate reader. Compound cytotoxic response (% C) was normalized to the robust means of column 6 (Control 1, 0% Cytotoxicity) and column 18 (Control 2, 100% Cytotoxicity) and normalized % cytotoxicity (% C) calculated. % C=100−100*((Compound−Control 2)/(Control1−Control2)). These normalized data were then used to determine a 50% cytotoxic response (CC50) using 4-parameter logistic curve model 201 in Activity Base XE:
[formula] • where A=minimum asymptote (% cytotoxicity), B=maximum asymptote (% cytotoxicity), C=Log CC50 (pCC50), D=Hill slope, and x=[inhibitor], (M).

[5] = SW48, 120 h, read-out: SW48 pCC50, SW48 cell viability, 120 hours incubation (converted), Table 2
[6] = SW48, read-out: SW48 pCC50, measured potency from Example B, as repeated in Table 3 (converted)
[7] = SW48 cell viability, 120 hours incubation, Table 2

CN(c1ccc([C@H]2CCC[C@@H](C(=O)Nc3ccc(C(F)(F)F)cc3F)[C@@H]2C(=O)O)cc1)S(=O)(=O)c1ccc2scnc2c1 [Example 101, (1R,2R,6S)-2-((2-fluoro-4-(trifluoromethyl)phenyl)carbamoyl)-6-(4-(N-methylbenzo[d]thiazole-5-sulfonamido)phenyl)cyclohexane-1-carboxylic acid] showed an IC50 [1] of 5.01 nM, a fraction unbound at 4 h, 1 µM [2] of 0.0349 and a CC50 [3] of 43.7 nM. The CC50 [4, 5] was 1260 nM and the CC50 [4, 6] was 1260 nM.
In the case of Cc1nc2cc(S(=O)(=O)N(C)c3ccc([C@H]4C[C@@H](N5CCOCC5)C[C@@H](C(=O)Nc5ccc(C(F)(F)F)cc5F)[C@@H]4C(=O)O)cc3)ccc2n1C (single isomer, unassigned) [Example 337], the IC50 [1] is reported as 1.58 nM, the fraction unbound at 4 h, 1 µM [2] is reported as 0.224 and the “Free Drug SW48 pCC50” value ([3]; SW48 pCC50 corrected with measured free fraction in cell assay media) is reported as 7.45. The “SW48 pCC50” value [4, 7] was 6.8 and the “SW48 pCC50” value ([4]; measured potency from Example B, as repeated in Table 3) was 6.8.
Cc1nc2cc(S(=O)(=O)N(C)c3ccc([C@H]4C[C@@H](OC[C@H]5CCOC5)C[C@@H](C(=O)Nc5ccc(C(F)(F)F)cc5F)[C@@H]4C(=O)O)cc3)ccc2n1C (stereo in doubt) [Example 317, (1R*,2R*,4R*,6S*)-2-((2-fluoro-4-(trifluoromethyl)phenyl)carbamoyl)-4-(((S)-tetrahydrofuran-3-yl)methoxy)-6-(4-((N,1,2-trimethyl-1H-benzo[d]imidazole)-5-sulfonamido)phenyl)cyclohexane-1-carboxylic acid] showed an IC50 [1] of 1.58 nM, a fraction unbound at 4 h, 1 µM [2] of 0.15 and a CC50 [3] of 12 nM. For the same compound, the CC50 [4, 5] was 79.4 nM and the CC50 [4, 6] was 79.4 nM.
In the case of Cc1nc2cc(S(=O)(=O)N(C)c3ccc([C@H]4CCC[C@@H](COc5ccc(C(F)(F)F)cc5O)[C@@H]4C(=O)O)cc3)ccc2n1C [Example 206, (1R,2R,6S)-2-((2-hydroxy-4-(trifluoromethyl)phenoxy)methyl)-6-(4-((N,1,2-trimethyl-1H-benzo[d]imidazole)-5-sulfonamido)phenyl)cyclohexane-1-carboxylic acid], the IC50 [1] is reported as 15.8 nM, the fraction unbound at 4 h, 1 µM [2] is reported as 0.0032 and the CC50 [3] is reported as 12.9 nM. For the same compound, the CC50 [4, 5] was 3980 nM and the CC50 [4, 6] was 3980 nM.
Work on Cc1nc2cc(S(=O)(=O)N(C)c3ccc([C@H]4CCC[C@@H](C(=O)Nc5ccc(C(F)(F)F)cc5F)[C@@H]4C(=O)O)cc3)c(F)cc2n1C [Example 127, (1R,2R,6S)-2-((2-fluoro-4-(trifluoromethyl)phenyl)carbamoyl)-6-(4-((6-fluoro-N,1,2-trimethyl-1H-benzo[d]imidazole)-5-sulfonamido)phenyl)cyclohexane-1-carboxylic acid] yielded an IC50 [1] of 3.98 nM, a fraction unbound at 4 h, 1 µM [2] of 0.0443 and a CC50 [3] of 44.7 nM. For the same compound, the CC50 [4, 5] was 1000 nM and the CC50 [4, 6] was 1000 nM.
Compound CN(c1ccc([C@H]2CCC[C@@H](C(=O)Nc3ccc(C(F)(F)F)cc3F)[C@@H]2C(=O)O)cc1)S(=O)(=O)c1cccc(C2CCNCC2)c1 [Example 261, (1R,2R,6S)-2-((2-fluoro-4-(trifluoromethyl)phenyl)carbamoyl)-6-(4-((N-methyl-3-(piperidin-4-yl)phenyl)sulfonamido)phenyl)cyclohexane-1-carboxylic acid] has an IC50 [1] of 1.58 nM, a fraction unbound at 4 h, 1 µM [2] of 0.311 and a CC50 [3] of 309 nM. The CC50 [4, 5] was 1000 nM and the CC50 [4, 6] was 1000 nM.
Work on Cc1nc2cc(S(=O)(=O)Nc3ccc([C@@H]4CCC[C@H](C(=O)Nc5ccc(C(F)(F)F)cc5F)[C@H]4C(=O)O)cc3)ccc2n1C (single isomer, unassigned) [Example 224] yielded an IC50 [1] of 1.26 nM, a fraction unbound at 4 h, 1 µM [2] of 0.0355 and a CC50 [3] of 17.8 nM. For the same compound, the CC50 [4, 5] was 501 nM and the CC50 [4, 6] was 501 nM.
CN(c1ccc([C@H]2CCC[C@@H](C(=O)Nc3ccc(C(F)(F)F)cc3F)[C@@H]2C(=O)O)cc1)S(=O)(=O)c1ccc2c(c1)OCC2 [Example 112, (1R,2R,6S)-2-((2-fluoro-4-(trifluoromethyl)phenyl)carbamoyl)-6-(4-((N-methyl-2,3-dihydrobenzofuran)-6-sulfonamido)phenyl)cyclohexane-1-carboxylic acid] showed an IC50 [1] of 2.51 nM, a fraction unbound at 4 h, 1 µM [2] of 0.0405 and a CC50 [3] of 32.4 nM. It also gave a CC50 [4, 5] of 794 nM and a CC50 [4, 6] of 794 nM.
CN(c1ccc([C@H]2CCC[C@@H](C(=O)Nc3ccc(C(F)(F)F)cc3F)[C@@H]2C(=O)O)cc1)S(=O)(=O)c1ccc2c(c1)nc(CO)n2C [Example 372, (1R,2R,6S)-2-((2-fluoro-4-(trifluoromethyl)phenyl)carbamoyl)-6-(4-((2-(hydroxymethyl)-N,1-dimethyl-1H-benzo[d]imidazole)-5-sulfonamido)phenyl)cyclohexane-1-carboxylic acid] showed an IC50 [1] of 1.58 nM, a fraction unbound at 4 h, 1 µM [2] of 0.208 and a CC50 [3] of 41.7 nM. It also gave a CC50 [4, 5] of 200 nM and a CC50 [4, 6] of 200 nM.
In the case of Cc1cc([C@H]2CCC[C@@H](C(=O)Nc3ccc(C(F)(F)F)cc3F)[C@@H]2C(=O)O)ccc1N(C)S(=O)(=O)c1ccc2c(c1)nc(C)n2C [Example 295, (1R,2R,6S)-2-((2-fluoro-4-(trifluoromethyl)phenyl)carbamoyl)-6-(3-methyl-4-((N,1,2-trimethyl-1H-benzo[d]imidazole)-5-sulfonamido)phenyl)cyclohexane-1-carboxylic acid], the IC50 [1] is reported as 1.58 nM, the fraction unbound at 4 h, 1 µM [2] is reported as 0.118 and the CC50 [3] is reported as 186 nM. It also gave a CC50 [4, 5] of 1580 nM and a CC50 [4, 6] of 1580 nM.
Work on Cc1nc2cc(S(=O)(=O)N(C)c3ccc([C@@H]4CCC[C@H](C(=O)Nc5c(F)cc(C(C)C)cc5F)[C@H]4C(=O)O)cc3)ccc2n1C (single isomer, unassigned) [Example 171] yielded an IC50 [1] of 3.16 nM, a fraction unbound at 4 h, 1 µM [2] of 0.0634 and a CC50 [3] of 50.1 nM. It also gave a CC50 [4, 5] of 794 nM and a CC50 [4, 6] of 794 nM.
With CN[C@H]1C[C@H](C(=O)Nc2ccc(C(F)(F)F)cc2F)[C@@H](C(=O)O)[C@H](c2ccc(N(C)S(=O)(=O)c3ccc4c(c3)nc(C)n4C)cc2)C1 (single isomer, unassigned) [Example 255] the IC50 [1] was 158 nM, the fraction unbound at 4 h, 1 µM [2] was 0.439 and the CC50 [3] was 3470 nM. The CC50 [4, 5] was 7940 nM and the CC50 [4, 6] was 7940 nM.
With Cc1nc2cc(S(=O)(=O)N(C)c3ccc([C@H]4C[C@H](N5CC[C@@H](F)C5)C[C@@H](C(=O)Nc5ccc(C(F)(F)F)cc5F)[C@@H]4C(=O)O)cc3)ccc2n1C (stereo in doubt) [Example 383, rel-(1R*,2R*,4S*,6S*)-2-((2-fluoro-4-(trifluoromethyl)phenyl)carbamoyl)-4-((R)-3-fluoropyrrolidin-1-yl)-6-(4-((N,1,2-trimethyl-1H-benzo[d]imidazole)-5-sulfonamido)phenyl)cyclohexane-1-carboxylic acid] the IC50 [1] was 7.94 nM, the fraction unbound at 4 h, 1 µM [2] was 0.0589 and the CC50 [3] was 468 nM. The CC50 [4, 5] was 7940 nM and the CC50 [4, 6] was 7940 nM.
With CCOC1CC(C(=O)Nc2ccc(C(F)(F)F)cc2)C(C(=O)O)C(c2ccc(N(C)S(=O)(=O)c3ccc4c(c3)nc(C)n4C)cc2)C1 [Example 330, rel-(1R,2R,4R,6S)-4-ethoxy-2-((4-(trifluoromethyl)phenyl)carbamoyl)-6-(4-((N,1,2-trimethyl-1H-benzo[d]imidazole)-5-sulfonamido)phenyl)cyclohexane-1-carboxylic acid] the IC50 [1] was 5.01 nM, the fraction unbound at 4 h, 1 µM [2] was 0.102 and the CC50 [3] was 40.7 nM. For the same compound, the CC50 [4, 5] was 398 nM and the CC50 [4, 6] was 398 nM.
Compound Cc1nc2cc(S(=O)(=O)N(C)c3ccc([C@H]4C[C@H](N5CC[C@H](F)C5)C[C@@H](C(=O)Nc5ccc(C(F)(F)F)cc5F)[C@@H]4C(=O)O)cc3)ccc2n1C (stereo in doubt) [Example 380, rel-(1R*,2R*,4S*,6S*)-2-((2-fluoro-4-(trifluoromethyl)phenyl)carbamoyl)-4-((S)-3-fluoropyrrolidin-1-yl)-6-(4-((N,1,2-trimethyl-1H-benzo[d]imidazole)-5-sulfonamido)phenyl)cyclohexane-1-carboxylic acid] has an IC50 [1] of 39.8 nM, a fraction unbound at 4 h, 1 µM [2] of 0.0334 and a CC50 [3] of 331 nM. It also gave a CC50 [4, 5] of 10000 nM.
Cc1nc2cc(S(=O)(=O)N(C)c3ccc([C@H]4C[C@@H](O[C@@H]5CCOC5)C[C@@H](C(=O)Nc5ccc(C(F)(F)F)cc5F)[C@@H]4C(=O)O)cc3)ccc2n1C (relative stereo) [Example 321, (1R*,2R*,4R*,6S*)-2-((2-fluoro-4-(trifluoromethyl)phenyl)carbamoyl)-4-(((R)-tetrahydrofuran-3-yl)oxy)-6-(4-((N,1,2-trimethyl-1H-benzo[d]imidazole)-5-sulfonamido)phenyl)cyclohexane-1-carboxylic acid] showed an IC50 [1] of 1.58 nM, a fraction unbound at 4 h, 1 µM [2] of 0.16 and a CC50 [3] of 31.6 nM. It also gave a CC50 [4, 5] of 200 nM and a CC50 [4, 6] of 200 nM.
In the case of Cc1nc2cc(S(=O)(=O)N(C)c3ccc([C@H]4CCC[C@@H](C(=O)Nc5ccc(C(F)(F)F)cc5F)[C@@H]4C(=O)O)c(F)c3)ccc2n1C (single isomer, unassigned) [Example 374], the IC50 [1] is reported as 3.98 nM, the fraction unbound at 4 h, 1 µM [2] is reported as 0.113 and the CC50 [3] is reported as 44.7 nM. The CC50 [4, 6] was 398 nM and the “SW48 pCC50” value [4, 7] was 6.4.
